Assay: mn = molality of the nth substance listed, in mol/kg
Conditions: Liquid, Vibrating tube method

[Cl-].[Cl-].[Sr+2] [strontium chloride] + O
mass density [kg/m3]
Conditions	298.11 K	323.13 K	348.12 K	373.12 K	398.08 K	423.07 K	448.03 K	473.02 K
1100 kPa, m1 = 1.022	1130.15	1118.47	1104.6	1088.34	1069.78	1049.35	1026.97	–
1100 kPa, m1 = 2.024	1247.6	1234.1	1219.34	1202.92	1184.72	1165.03	1143.84	–
1100 kPa, m1 = 3.031	1354.92	1340.16	1324.81	1308.43	1290.36	1271.02	1250.51	–
10100 kPa, m1 = 1.022	1133.6	1121.92	1108.06	1092.02	1073.81	1053.57	1031.7	1007.66
10100 kPa, m1 = 2.024	1250.68	1237.28	1222.48	1206.28	1188.28	1168.83	1147.95	1125.38
10100 kPa, m1 = 3.031	1357.74	1343.03	1327.78	1311.58	1293.65	1274.46	1254.24	1232.68
20100 kPa, m1 = 1.022	1137.52	1125.75	1111.92	1095.98	1078.08	1058.3	1037.05	1013.5
20100 kPa, m1 = 2.024	1254.27	1240.69	1226.06	1209.96	1192.23	1173.04	1152.74	1130.5
20100 kPa, m1 = 3.031	1360.96	1346.27	1331.14	1315.04	1297.24	1278.29	1258.62	1237.28
30100 kPa, m1 = 1.022	1141.28	1129.44	1115.71	1100.03	1082.31	1062.95	1042	1019.02
30100 kPa, m1 = 2.024	1257.65	1244.1	1229.57	1213.53	1196.08	1177.32	1157.21	1135.33
30100 kPa, m1 = 3.031	1364.07	1349.35	1334.39	1318.4	1300.87	1282.22	1262.72	1241.64
40100 kPa, m1 = 1.022	1145.04	1133.12	1119.42	1103.81	1086.33	1067.24	1046.83	1024.58
40100 kPa, m1 = 2.024	1260.99	1247.56	1233.02	1217.2	1199.73	1181.23	1161.52	1140.28
40100 kPa, m1 = 3.031	1367.19	1352.55	1337.62	1321.75	1304.29	1285.9	1266.77	1246.19
50100 kPa, m1 = 1.022	1148.76	1136.68	1123.04	1107.65	1090.29	1071.7	1051.49	1029.72
50100 kPa, m1 = 2.024	1264.44	1250.9	1236.41	1220.6	1203.4	1185.23	1165.8	1144.86
50100 kPa, m1 = 3.031	1370.34	1355.63	1340.81	1324.88	1307.65	1289.64	1270.62	1250.44
60100 kPa, m1 = 1.022	1152.26	1140.25	1126.67	1111.38	1094.27	1075.85	1056.12	1034.76
60100 kPa, m1 = 2.024	1267.55	1254.09	1239.66	1224.07	1207.02	1189.05	1169.91	1149.32
60100 kPa, m1 = 3.031	1373.16	1358.71	1343.89	1328.14	1311.1	1293.25	1274.47	1254.53
68600 kPa, m1 = 1.022	1155.3	1143.18	1129.67	1114.46	1097.55	1079.3	1059.85	1038.86
68600 kPa, m1 = 2.024	1270.33	1256.76	1242.52	1226.94	1210.03	1192.19	1173.33	1153.07
68600 kPa, m1 = 3.031	1375.7	1361.18	1346.54	1330.91	1313.86	1296.08	1277.59	1257.93

— the NIST ThermoML archive (doi:10.1021/je301132p)
